One assay concerns the target T1, recombinant human Chk1 (Homo sapiens, UniProt O14757).
T1 sequence (O14757 1-476): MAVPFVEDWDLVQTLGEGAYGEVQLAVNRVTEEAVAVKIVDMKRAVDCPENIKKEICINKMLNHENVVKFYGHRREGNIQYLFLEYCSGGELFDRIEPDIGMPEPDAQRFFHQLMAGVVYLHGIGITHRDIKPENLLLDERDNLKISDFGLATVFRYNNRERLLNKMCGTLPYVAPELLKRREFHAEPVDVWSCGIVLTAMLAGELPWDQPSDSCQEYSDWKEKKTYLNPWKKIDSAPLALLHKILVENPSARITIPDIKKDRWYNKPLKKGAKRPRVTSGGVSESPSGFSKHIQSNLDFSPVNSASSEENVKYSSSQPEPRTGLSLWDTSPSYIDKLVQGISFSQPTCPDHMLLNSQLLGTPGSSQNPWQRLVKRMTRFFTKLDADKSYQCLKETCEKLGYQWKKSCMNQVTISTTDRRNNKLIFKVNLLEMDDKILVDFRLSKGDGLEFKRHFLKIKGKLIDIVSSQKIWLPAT
As to the kind of experiment: IMAP fluorescence polarization kinase inhibition assay, Chk1. In kind it is biochemical. The following applies: read-out: IC50 Chk1; single assay; head-to-head testing, single batch of enzyme. On the technique in general: In fluorescence polarisation assays a small probe gives low polarisation when free and higher when bound to something large.

The target in the next assay is recombinant human RSK2 (Homo sapiens, UniProt P51812). Briefly: IMAP fluorescence polarization kinase inhibition assay, RSK2. In kind it is biochemical. The following applies: read-out: IC50 RSK2; single assay; head-to-head testing, single batch of enzyme.

SMILES strings stand for the structures.

Sequence of recombinant human RSK2 (P51812 whole entry): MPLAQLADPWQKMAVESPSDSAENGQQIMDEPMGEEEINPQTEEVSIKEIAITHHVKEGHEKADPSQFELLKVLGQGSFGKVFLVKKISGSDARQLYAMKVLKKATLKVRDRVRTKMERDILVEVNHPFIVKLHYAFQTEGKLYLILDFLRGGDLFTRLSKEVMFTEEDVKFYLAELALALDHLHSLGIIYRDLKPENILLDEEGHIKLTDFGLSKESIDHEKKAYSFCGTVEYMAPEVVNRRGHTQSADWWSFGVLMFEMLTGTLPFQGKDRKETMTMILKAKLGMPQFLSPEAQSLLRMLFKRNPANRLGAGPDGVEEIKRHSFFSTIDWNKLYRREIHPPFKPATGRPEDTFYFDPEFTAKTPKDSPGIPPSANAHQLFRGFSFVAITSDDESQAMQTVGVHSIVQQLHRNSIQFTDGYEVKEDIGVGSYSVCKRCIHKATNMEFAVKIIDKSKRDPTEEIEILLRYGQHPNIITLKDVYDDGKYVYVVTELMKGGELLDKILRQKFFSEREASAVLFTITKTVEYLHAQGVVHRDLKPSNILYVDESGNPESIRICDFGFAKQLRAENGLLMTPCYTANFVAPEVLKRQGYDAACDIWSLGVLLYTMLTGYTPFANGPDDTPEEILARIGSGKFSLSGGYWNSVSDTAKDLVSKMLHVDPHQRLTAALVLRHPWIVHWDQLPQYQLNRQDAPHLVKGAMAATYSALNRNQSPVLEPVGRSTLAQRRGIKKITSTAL

Take `CC(=NNC(=N)N)c1ccc(NC(=O)c2cc3cccc([N+](=O)[O-])c3[nH]2)cc1` [PV1019, 7-nitro-1H-indole-2-carboxylic acid {4-[1-(guanidinohydrazone)-ethyl]-phenyl}-amide]: the figures for the IC50 at recombinant human Chk1 and at recombinant human RSK2 were 8.1 µM and 39 µM, respectively.

One may read the IC50 as the midpoint of a concentration-inhibition curve.

Values taken from paper PMC3195894 (FEBS letters, 2011).
